Measured values taken from PMC4914611 (Nature nanotechnology, 2013).

Target: CM11CD746~1R~TET (Chara corallina, UniProt Q9SSU1)
Settings: actin filaments; 25 mM imidazole, 25 mM KCl, 1 mM EGTA, 2 mM free Mg2+

Sequence of CM11CD746~1R~TET (Q9SSU1 1-746): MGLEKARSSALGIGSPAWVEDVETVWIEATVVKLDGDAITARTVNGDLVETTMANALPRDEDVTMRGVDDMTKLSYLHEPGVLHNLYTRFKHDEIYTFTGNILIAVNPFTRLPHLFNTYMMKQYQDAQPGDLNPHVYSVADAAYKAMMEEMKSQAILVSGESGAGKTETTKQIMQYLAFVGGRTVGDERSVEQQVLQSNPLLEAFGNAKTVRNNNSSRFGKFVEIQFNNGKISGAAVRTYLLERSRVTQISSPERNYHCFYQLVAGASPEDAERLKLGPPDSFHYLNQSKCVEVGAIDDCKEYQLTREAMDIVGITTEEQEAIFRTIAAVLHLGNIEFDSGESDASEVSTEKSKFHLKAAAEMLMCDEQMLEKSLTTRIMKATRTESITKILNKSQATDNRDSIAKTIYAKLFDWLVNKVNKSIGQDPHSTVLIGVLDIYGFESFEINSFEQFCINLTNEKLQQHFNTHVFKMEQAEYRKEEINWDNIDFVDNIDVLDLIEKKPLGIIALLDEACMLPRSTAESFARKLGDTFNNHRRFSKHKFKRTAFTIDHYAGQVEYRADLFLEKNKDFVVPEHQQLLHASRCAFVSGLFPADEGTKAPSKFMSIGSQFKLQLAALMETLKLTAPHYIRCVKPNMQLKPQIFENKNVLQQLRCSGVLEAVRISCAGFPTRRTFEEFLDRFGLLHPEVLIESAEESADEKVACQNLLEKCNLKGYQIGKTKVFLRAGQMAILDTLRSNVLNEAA

## Nc1ncnc2c1ncn2[C@@H]1O[C@H](COP(=O)(O)OP(=O)(O)OP(=O)(O)O)[C@@H](O)[C@H]1O [ATP]
  single-molecule fluorescence tracking, run length and velocity vs [ATP]: velocities are shown (mean ± s.e.m.) as a function of [ATP]
